Assay results reported in ChEMBL document CHEMBL4619774 (J Med Chem, 2020).
In brackets after ≈: the same amount, converted by molar mass.

Test system: not listed separately
Assay: Volume of distribution at steady state in C57BL/6 mouse at 1 mg/kg, iv bolus injection or 3 mg/kg, po by LC-MS/MS analysis
Assay type: ADME, organism-based
Conditions: in vivo, read-out: Vdss

Vd [L/kg]	Compound
0.4	CC(C)(O)c1cc(COc2ccccc2CC(=O)O)cc(-c2ccc3c(c2)[C@H](N)CO3)c1
0.7	CC(C)(C#N)c1cc(COc2ccccc2CC(=O)O)cc(-c2ccc3c(c2)[C@H](N)CO3)c1
1	CC1(C)COc2c(COc3ccccc3CC(=O)O)cc(-c3ccc4c(c3)[C@H](N)CO4)cc21

Target: Plasma kallikrein (Homo sapiens, UniProt P03952)
Assay: not given
Assay type: single protein
Conditions: not given

Chain of Plasma kallikrein (P03952 20-390 limits assumed): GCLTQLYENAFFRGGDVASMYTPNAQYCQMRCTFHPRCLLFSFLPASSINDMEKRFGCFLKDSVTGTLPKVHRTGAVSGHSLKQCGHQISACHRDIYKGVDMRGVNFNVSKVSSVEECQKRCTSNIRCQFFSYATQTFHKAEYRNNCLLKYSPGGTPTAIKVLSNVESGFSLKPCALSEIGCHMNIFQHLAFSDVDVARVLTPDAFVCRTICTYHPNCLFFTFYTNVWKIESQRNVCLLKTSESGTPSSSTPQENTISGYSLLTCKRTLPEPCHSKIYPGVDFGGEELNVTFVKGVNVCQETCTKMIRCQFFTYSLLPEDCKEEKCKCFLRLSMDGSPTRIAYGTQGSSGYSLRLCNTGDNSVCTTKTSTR
Chain of Plasma kallikrein (P03952 391-638 limits assumed): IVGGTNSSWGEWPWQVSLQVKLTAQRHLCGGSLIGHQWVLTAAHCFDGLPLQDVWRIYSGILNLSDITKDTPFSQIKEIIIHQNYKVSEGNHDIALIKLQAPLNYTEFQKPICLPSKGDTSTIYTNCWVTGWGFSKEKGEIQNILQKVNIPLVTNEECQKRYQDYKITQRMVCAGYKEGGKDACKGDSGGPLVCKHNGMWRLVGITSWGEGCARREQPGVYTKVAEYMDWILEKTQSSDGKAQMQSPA

IC50 [nM]	Compound
1	CC(C)c1cc(-c2ccc3c(c2)[C@H](N)CO3)cc([C@@H]2CNc3cccc(CC(=O)O)c3O2)c1
6	CC(C)(O)c1cc(COc2ccccc2CC(=O)O)cc(-c2ccc3c(c2)[C@H](N)CO3)c1
2	CC(C)(C#N)c1cc(COc2ccccc2CC(=O)O)cc(-c2ccc3c(c2)[C@H](N)CO3)c1
7	CC1(C)COc2c(COc3ccccc3CC(=O)O)cc(-c3ccc4c(c3)[C@H](N)CO4)cc21

Target: T1, Urokinase-type plasminogen activator (Homo sapiens, UniProt P00749)
Assay: not given
Assay type: ADME
Conditions: not given

IC50 [nM]	Compound
16	CC1(C)COc2c(COc3ccccc3CC(=O)O)cc(-c3ccc4c(c3)[C@H](N)CO4)cc21

Target: T2, Coagulation factor VII (Homo sapiens, UniProt P08709)
T2 sequence (P08709 whole entry): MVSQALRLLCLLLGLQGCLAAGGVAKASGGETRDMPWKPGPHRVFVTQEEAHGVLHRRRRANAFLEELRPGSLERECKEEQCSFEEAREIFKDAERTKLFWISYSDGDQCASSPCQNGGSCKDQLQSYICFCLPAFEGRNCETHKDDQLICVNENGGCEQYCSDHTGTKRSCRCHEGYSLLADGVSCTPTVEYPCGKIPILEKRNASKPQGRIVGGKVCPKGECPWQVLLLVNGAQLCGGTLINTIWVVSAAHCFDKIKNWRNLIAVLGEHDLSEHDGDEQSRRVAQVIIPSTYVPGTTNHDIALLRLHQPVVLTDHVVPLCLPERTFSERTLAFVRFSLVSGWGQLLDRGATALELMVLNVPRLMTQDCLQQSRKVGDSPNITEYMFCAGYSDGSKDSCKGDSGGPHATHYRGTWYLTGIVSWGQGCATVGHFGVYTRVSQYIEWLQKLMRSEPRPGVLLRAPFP
Assay: not given
Assay type: single protein
Conditions: not given

IC50 [nM]	Compound
2000	CC(C)c1cc(-c2ccc3c(c2)[C@H](N)CO3)cc([C@@H]2CNc3cccc(CC(=O)O)c3O2)c1
7100	CC1(C)COc2c(COc3ccccc3CC(=O)O)cc(-c3ccc4c(c3)[C@H](N)CO4)cc21

Organism: Homo sapiens
Assay: Selectivity ratio of IC50 for inhibition of human complement FD to IC50 for inhibition of human F11a
Conditions: not given

Ratio IC50	Compound
40	CC(C)(O)c1cc(COc2ccccc2CC(=O)O)cc(-c2ccc3c(c2)[C@H](N)CO3)c1
17	CC1(C)COc2c(COc3ccccc3CC(=O)O)cc(-c3ccc4c(c3)[C@H](N)CO4)cc21

Test system: not listed separately
Assay: Clearance in C57BL/6 mouse at 1 mg/kg, iv bolus injection or 3 mg/kg, po by LC-MS/MS analysis
Assay type: ADME, organism-based
Conditions: in vivo

clearance [mL/min/kg]	Compound
19	CC(C)(O)c1cc(COc2ccccc2CC(=O)O)cc(-c2ccc3c(c2)[C@H](N)CO3)c1
55	CC(C)(C#N)c1cc(COc2ccccc2CC(=O)O)cc(-c2ccc3c(c2)[C@H](N)CO3)c1
4	CC1(C)COc2c(COc3ccccc3CC(=O)O)cc(-c3ccc4c(c3)[C@H](N)CO4)cc21

Target: Prothrombin (Homo sapiens, UniProt P00734)
Assay: not given
Assay type: single protein
Conditions: not given

IC50 [nM]	Compound
30	CC(C)c1cc(-c2ccc3c(c2)[C@H](N)CO3)cc([C@@H]2CNc3cccc(CC(=O)O)c3O2)c1
130	CC1(C)COc2c(COc3ccccc3CC(=O)O)cc(-c3ccc4c(c3)[C@H](N)CO4)cc21

Test system: Plasma
Assay: Anticoagulant activity in human plasma assessed as concentration required to double the activated partial thromboplastin time incubated for 3 mins followed by calcium chloride addition by aPTT-s reagent based automated coagulometric method
Assay type: functional
Conditions: not given

Compound	2aPTT [µM]
CC(C)c1cc(-c2ccc3c(c2)[C@H](N)CO3)cc([C@@H]2CNc3cccc(CC(=O)O)c3O2)c1	0.4
CC1(C)COc2c(COc3ccccc3CC(=O)O)cc(-c3ccc4c(c3)[C@H](N)CO4)cc21	2.5

Target: Complement factor D (Homo sapiens, UniProt P00746)
Assay: not given
Assay type: single protein
Conditions: not given

Chain of Complement factor D (P00746 whole entry): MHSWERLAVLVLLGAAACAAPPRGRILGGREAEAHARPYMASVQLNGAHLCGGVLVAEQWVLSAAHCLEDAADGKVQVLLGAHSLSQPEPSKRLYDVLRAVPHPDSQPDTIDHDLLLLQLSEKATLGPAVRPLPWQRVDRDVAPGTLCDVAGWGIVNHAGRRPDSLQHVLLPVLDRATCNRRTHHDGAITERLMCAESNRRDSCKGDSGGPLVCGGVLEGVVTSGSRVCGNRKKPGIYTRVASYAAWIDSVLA

IC50 [nM]	Compound
60	CC(C)c1cc(-c2ccc3c(c2)[C@H](N)CO3)cc([C@@H]2CNc3cccc(CC(=O)O)c3O2)c1
320	CC(C)(O)c1cc(COc2ccccc2CC(=O)O)cc(-c2ccc3c(c2)[C@H](N)CO3)c1
40	CC(C)(C#N)c1cc(COc2ccccc2CC(=O)O)cc(-c2ccc3c(c2)[C@H](N)CO3)c1
50	CC1(C)COc2c(COc3ccccc3CC(=O)O)cc(-c3ccc4c(c3)[C@H](N)CO4)cc21

Target: T1, Urokinase-type plasminogen activator
Assay: not given
Assay type: single protein
Conditions: not given
Remark: another data set of the same source

IC50 [nM]	Compound
20	CC(C)c1cc(-c2ccc3c(c2)[C@H](N)CO3)cc([C@@H]2CNc3cccc(CC(=O)O)c3O2)c1

Test system: not listed separately
Assay: in vitro
Conditions: human, Caco-2

Papp A→B [×10⁻⁶ cm/s]	Compound
1.4	CC(C)(C#N)c1cc(COc2ccccc2CC(=O)O)cc(-c2ccc3c(c2)[C@H](N)CO3)c1
12	CC1(C)COc2c(COc3ccccc3CC(=O)O)cc(-c3ccc4c(c3)[C@H](N)CO4)cc21

Test system: not listed separately
Assay: Dose normalized Cmax in C57BL/6 mouse at 1 mg/kg, iv bolus injection or 3 mg/kg, po by LC-MS/MS analysis
Assay type: ADME, organism-based
Conditions: in vivo

Cmax/dose [nM]	Compound
99	CC(C)(O)c1cc(COc2ccccc2CC(=O)O)cc(-c2ccc3c(c2)[C@H](N)CO3)c1
137	CC(C)(C#N)c1cc(COc2ccccc2CC(=O)O)cc(-c2ccc3c(c2)[C@H](N)CO3)c1
1126	CC1(C)COc2c(COc3ccccc3CC(=O)O)cc(-c3ccc4c(c3)[C@H](N)CO4)cc21

Test system: not listed separately
Assay: Terminal half life in C57BL/6 mouse at 1 mg/kg, iv bolus injection or 3 mg/kg, po by LC-MS/MS analysis
Assay type: ADME, organism-based
Conditions: in vivo, read-out: beta t1/2 (converted)

half-life [h]	Compound
1.7	CC(C)(O)c1cc(COc2ccccc2CC(=O)O)cc(-c2ccc3c(c2)[C@H](N)CO3)c1
0.3	CC(C)(C#N)c1cc(COc2ccccc2CC(=O)O)cc(-c2ccc3c(c2)[C@H](N)CO3)c1
6.4	CC1(C)COc2c(COc3ccccc3CC(=O)O)cc(-c3ccc4c(c3)[C@H](N)CO4)cc21

Test system: not given
Assay: not given
Conditions: human, caco-2; BLD = below limit of detection

Papp	Compound
Bld	CC(C)(O)c1cc(COc2ccccc2CC(=O)O)cc(-c2ccc3c(c2)[C@H](N)CO3)c1

Test system: not listed separately
Assay: in vitro
Conditions: human, Caco-2
Remark: another data set of the same source

efflux ratio	Compound
30	CC(C)(C#N)c1cc(COc2ccccc2CC(=O)O)cc(-c2ccc3c(c2)[C@H](N)CO3)c1
1	CC1(C)COc2c(COc3ccccc3CC(=O)O)cc(-c3ccc4c(c3)[C@H](N)CO4)cc21

Target: T3, Coagulation factor XI (Homo sapiens, UniProt P03951)
Assay: Inhibition of human F11a using D-Leu-Pro-Arg*Rh110-D-Pro as substrate preincubated for 60 mins followed by substrate addition and measured after 60 mins by fluorescence assay
Conditions: not given

T3 sequence (P03951 19-387 limits assumed): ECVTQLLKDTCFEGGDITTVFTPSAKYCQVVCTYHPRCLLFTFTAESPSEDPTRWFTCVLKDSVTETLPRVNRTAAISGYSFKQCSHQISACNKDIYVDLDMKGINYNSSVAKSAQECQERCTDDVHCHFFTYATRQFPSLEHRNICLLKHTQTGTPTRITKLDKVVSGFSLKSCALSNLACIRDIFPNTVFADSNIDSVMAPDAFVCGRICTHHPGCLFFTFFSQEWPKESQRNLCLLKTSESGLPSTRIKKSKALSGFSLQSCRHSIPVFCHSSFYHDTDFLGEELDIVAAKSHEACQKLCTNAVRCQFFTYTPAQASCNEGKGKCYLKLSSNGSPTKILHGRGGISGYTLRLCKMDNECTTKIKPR
T3 sequence (P03951 388-625 limits assumed): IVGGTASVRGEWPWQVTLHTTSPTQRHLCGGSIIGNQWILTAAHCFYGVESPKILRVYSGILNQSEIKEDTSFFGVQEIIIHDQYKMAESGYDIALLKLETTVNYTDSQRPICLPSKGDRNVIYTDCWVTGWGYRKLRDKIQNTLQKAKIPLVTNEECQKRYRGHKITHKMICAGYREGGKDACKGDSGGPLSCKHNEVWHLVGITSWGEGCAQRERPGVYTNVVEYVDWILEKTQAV

IC50 [nM]	Compound
< 0.7	CC(C)c1cc(-c2ccc3c(c2)[C@H](N)CO3)cc([C@@H]2CNc3cccc(CC(=O)O)c3O2)c1
4	CC(C)(O)c1cc(COc2ccccc2CC(=O)O)cc(-c2ccc3c(c2)[C@H](N)CO3)c1
4	CC(C)(C#N)c1cc(COc2ccccc2CC(=O)O)cc(-c2ccc3c(c2)[C@H](N)CO3)c1
3	CC1(C)COc2c(COc3ccccc3CC(=O)O)cc(-c3ccc4c(c3)[C@H](N)CO4)cc21

Test system: not listed separately
Assay: in vitro
Conditions: human, Caco-2
Remark: another data set of the same source

Papp B→A [×10⁻⁶ cm/s]	Compound
19	CC(C)(O)c1cc(COc2ccccc2CC(=O)O)cc(-c2ccc3c(c2)[C@H](N)CO3)c1
41	CC(C)(C#N)c1cc(COc2ccccc2CC(=O)O)cc(-c2ccc3c(c2)[C@H](N)CO3)c1
12	CC1(C)COc2c(COc3ccccc3CC(=O)O)cc(-c3ccc4c(c3)[C@H](N)CO4)cc21

Target: Tissue-type plasminogen activator (Homo sapiens, UniProt P00750)
Assay: not given
Assay type: single protein
Conditions: not given

Chain of Tissue-type plasminogen activator (P00750 whole entry): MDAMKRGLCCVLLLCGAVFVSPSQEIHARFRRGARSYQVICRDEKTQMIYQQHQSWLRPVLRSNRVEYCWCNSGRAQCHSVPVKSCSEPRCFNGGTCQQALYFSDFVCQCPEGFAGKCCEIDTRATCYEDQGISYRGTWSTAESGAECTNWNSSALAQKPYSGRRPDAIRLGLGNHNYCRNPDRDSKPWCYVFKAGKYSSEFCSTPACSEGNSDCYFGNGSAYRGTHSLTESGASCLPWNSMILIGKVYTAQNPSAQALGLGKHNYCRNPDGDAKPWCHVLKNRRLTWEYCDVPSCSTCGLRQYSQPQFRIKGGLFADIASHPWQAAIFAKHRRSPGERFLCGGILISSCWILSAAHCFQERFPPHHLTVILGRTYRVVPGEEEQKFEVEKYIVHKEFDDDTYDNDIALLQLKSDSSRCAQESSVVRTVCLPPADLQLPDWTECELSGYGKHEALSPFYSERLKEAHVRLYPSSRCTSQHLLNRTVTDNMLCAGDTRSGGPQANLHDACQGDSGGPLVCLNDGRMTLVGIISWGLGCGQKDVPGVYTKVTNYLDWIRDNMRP

IC50 [nM]	Compound
50	CC(C)c1cc(-c2ccc3c(c2)[C@H](N)CO3)cc([C@@H]2CNc3cccc(CC(=O)O)c3O2)c1
100	CC1(C)COc2c(COc3ccccc3CC(=O)O)cc(-c3ccc4c(c3)[C@H](N)CO4)cc21

Test system: not listed separately
Assay: Dose normalized AUC in C57BL/6 mouse at 3 mg/kg, po by LC-MS/MS analysis
Assay type: ADME, organism-based
Conditions: in vivo

AUC/dose [nM·h]	Compound
186	CC(C)(O)c1cc(COc2ccccc2CC(=O)O)cc(-c2ccc3c(c2)[C@H](N)CO3)c1
171	CC(C)(C#N)c1cc(COc2ccccc2CC(=O)O)cc(-c2ccc3c(c2)[C@H](N)CO3)c1
6525	CC1(C)COc2c(COc3ccccc3CC(=O)O)cc(-c3ccc4c(c3)[C@H](N)CO4)cc21

Test system: not listed separately
Assay: physchem
Conditions: aqueous buffer, pH 6.8

solubility thermodynamic [µM]	Compound
> 1000	CC(C)(O)c1cc(COc2ccccc2CC(=O)O)cc(-c2ccc3c(c2)[C@H](N)CO3)c1
60 (≈ 26.6 µg/mL)	CC(C)(C#N)c1cc(COc2ccccc2CC(=O)O)cc(-c2ccc3c(c2)[C@H](N)CO3)c1
< 4	CC1(C)COc2c(COc3ccccc3CC(=O)O)cc(-c3ccc4c(c3)[C@H](N)CO4)cc21

Test system: not listed separately
Assay: Oral bioavailability in C57BL/6 mouse at 3 mg/kg by LC-MS/MS analysis
Assay type: ADME, organism-based
Conditions: in vivo

bioavailability [%]	Compound
3	CC(C)(O)c1cc(COc2ccccc2CC(=O)O)cc(-c2ccc3c(c2)[C@H](N)CO3)c1
25	CC(C)(C#N)c1cc(COc2ccccc2CC(=O)O)cc(-c2ccc3c(c2)[C@H](N)CO3)c1
61	CC1(C)COc2c(COc3ccccc3CC(=O)O)cc(-c3ccc4c(c3)[C@H](N)CO4)cc21

Target: Plasminogen (Homo sapiens, UniProt P00747)
Assay: not given
Assay type: single protein
Conditions: not given

Chain of Plasminogen (P00747 97-580 limits assumed): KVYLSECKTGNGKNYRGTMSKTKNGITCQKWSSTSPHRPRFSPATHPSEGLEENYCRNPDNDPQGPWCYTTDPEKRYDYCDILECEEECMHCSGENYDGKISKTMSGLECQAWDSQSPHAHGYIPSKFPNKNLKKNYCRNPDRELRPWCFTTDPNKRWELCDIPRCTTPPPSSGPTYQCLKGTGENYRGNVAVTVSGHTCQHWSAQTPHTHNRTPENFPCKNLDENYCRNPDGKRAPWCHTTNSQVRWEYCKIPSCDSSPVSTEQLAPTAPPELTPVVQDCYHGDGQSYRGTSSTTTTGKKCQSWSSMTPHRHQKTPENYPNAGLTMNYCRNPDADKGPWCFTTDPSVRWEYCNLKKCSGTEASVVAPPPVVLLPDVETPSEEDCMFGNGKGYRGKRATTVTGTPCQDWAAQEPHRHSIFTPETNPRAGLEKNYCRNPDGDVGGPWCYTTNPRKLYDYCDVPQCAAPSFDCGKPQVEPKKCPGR
Chain of Plasminogen (P00747 581-810 limits assumed): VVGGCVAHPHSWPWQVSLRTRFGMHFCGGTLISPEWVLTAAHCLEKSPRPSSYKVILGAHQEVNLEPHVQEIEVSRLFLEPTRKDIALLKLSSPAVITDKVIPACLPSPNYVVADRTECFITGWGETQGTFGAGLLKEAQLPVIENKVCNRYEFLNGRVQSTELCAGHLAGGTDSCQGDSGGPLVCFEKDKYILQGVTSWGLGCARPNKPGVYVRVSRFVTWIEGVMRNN

IC50 [nM]	Compound
690	CC(C)c1cc(-c2ccc3c(c2)[C@H](N)CO3)cc([C@@H]2CNc3cccc(CC(=O)O)c3O2)c1
6300	CC1(C)COc2c(COc3ccccc3CC(=O)O)cc(-c3ccc4c(c3)[C@H](N)CO4)cc21

Test system: Plasma
Assay: Effect on coagulation in human plasma assessed as concentration required to double the prothrombin time by thromboplastin-DS reagent based automated coagulometric method
Assay type: ADME, cell-free
Conditions: not given

2PT [µM]	Compound
19.8	CC1(C)COc2c(COc3ccccc3CC(=O)O)cc(-c3ccc4c(c3)[C@H](N)CO4)cc21

Target: Coagulation factor X (Homo sapiens, UniProt P00742)
Assay: not given
Assay type: single protein
Conditions: not given

Chain of Coagulation factor X (P00742 41-179 limits assumed): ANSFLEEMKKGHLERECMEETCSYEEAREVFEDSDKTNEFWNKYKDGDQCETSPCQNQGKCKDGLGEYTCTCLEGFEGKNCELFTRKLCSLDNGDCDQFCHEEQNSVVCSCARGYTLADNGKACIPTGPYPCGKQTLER
Chain of Coagulation factor X (P00742 235-488 limits assumed): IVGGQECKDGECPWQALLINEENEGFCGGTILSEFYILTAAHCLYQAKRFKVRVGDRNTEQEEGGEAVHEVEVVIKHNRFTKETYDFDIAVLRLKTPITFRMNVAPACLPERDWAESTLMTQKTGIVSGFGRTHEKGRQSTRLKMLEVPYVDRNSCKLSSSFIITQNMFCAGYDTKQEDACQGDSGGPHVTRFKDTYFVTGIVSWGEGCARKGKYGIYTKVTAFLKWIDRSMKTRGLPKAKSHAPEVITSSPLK

IC50 [nM]	Compound
220	CC(C)c1cc(-c2ccc3c(c2)[C@H](N)CO3)cc([C@@H]2CNc3cccc(CC(=O)O)c3O2)c1
840	CC1(C)COc2c(COc3ccccc3CC(=O)O)cc(-c3ccc4c(c3)[C@H](N)CO4)cc21

Target: T3, Coagulation factor XI
Assay: Inhibition of […] human plasma F11a catalytic domain expressed in Escherichia coli strain BL21(DE3) using D-Leu-Pro-Arg*Rh110-D-Pro as substrate preincubated for 60 mins followed by substrate addition and measured after 60 mins by fluorescence assay
Conditions: not given

IC50 [nM]	Compound
10	CC(C)c1cc(-c2ccc3c(c2)[C@H](N)CO3)cc([C@@H]2CNc3cccc(CC(=O)O)c3O2)c1
170	CC(C)(O)c1cc(COc2ccccc2CC(=O)O)cc(-c2ccc3c(c2)[C@H](N)CO3)c1
50	CC(C)(C#N)c1cc(COc2ccccc2CC(=O)O)cc(-c2ccc3c(c2)[C@H](N)CO3)c1
85	CC1(C)COc2c(COc3ccccc3CC(=O)O)cc(-c3ccc4c(c3)[C@H](N)CO4)cc21

Target: Coagulation factor IX (Homo sapiens, UniProt P00740)
Assay: not given
Assay type: single protein
Conditions: not given

Chain of Coagulation factor IX (P00740 47-191 limits assumed): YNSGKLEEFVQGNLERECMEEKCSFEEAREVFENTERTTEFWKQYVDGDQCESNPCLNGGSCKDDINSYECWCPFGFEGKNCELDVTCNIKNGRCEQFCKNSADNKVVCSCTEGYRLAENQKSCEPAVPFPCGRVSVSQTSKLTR
Chain of Coagulation factor IX (P00740 227-461 limits assumed): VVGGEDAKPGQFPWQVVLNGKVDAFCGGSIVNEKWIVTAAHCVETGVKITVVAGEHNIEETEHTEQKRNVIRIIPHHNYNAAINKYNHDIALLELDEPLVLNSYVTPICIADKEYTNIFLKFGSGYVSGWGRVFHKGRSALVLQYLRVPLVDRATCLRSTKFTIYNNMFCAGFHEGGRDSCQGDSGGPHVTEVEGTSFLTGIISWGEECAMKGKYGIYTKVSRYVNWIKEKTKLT

IC50 [nM]	Compound
30	CC(C)c1cc(-c2ccc3c(c2)[C@H](N)CO3)cc([C@@H]2CNc3cccc(CC(=O)O)c3O2)c1
210	CC1(C)COc2c(COc3ccccc3CC(=O)O)cc(-c3ccc4c(c3)[C@H](N)CO4)cc21
